# Test results: PMC5321741, “Arylmethylamino steroids as antiparasitic agents” (Nature Communications, 2017)
# Tests used:
# [1] = tested on: Candida albicans JMRC:STI:25000; test: agar diffusion inhibition zone test; format: cell-based; settings: 1o, 2o 1,000 µg/ml in DMSO, amphotericin B 10 µg/ml, solvent DMSO 0, read-out: inhibition zone diameter, Candida albicans (H8)
# Description: (§1) The following organisms were tested at the Hans Knöll Institute in Jena, for their susceptibility to the compounds 1o and 2o: Bacillus subtilis JMRC:STI:10880, Staphylococcus aureus JMRC:ST:10760, Escherichia coli JMRC:ST:33699, Pseudomonas aeruginosa JMRC:ST:33772, Pseudomonas aeruginosa JMRC:ST:337721, Staphylococcus aureus JMRC:ST:33793 (multi-resistant), Enterococcus faecalis JMRC:ST:33700 (Vancomycin-resistant), Mycobacterium vaccae JMRC:STI:10670, Sporobolomyces salmonicolor (Basidiomycetes yeast) JMRC:ST:35974, Candida albicans (Ascomycetes yeast) JMRC:STI:25000, Penicillium notatum JMRC:STI:50164.
# (§2) The bacteria were propagated in Mueller Hinton Broth (Oxoid)[49]. Yeast was propagated in YPD (yeast extract peptone dextrose): 1% yeast extract, 10 g; 2% peptone, 20 g; 2% agar, 20 g; 2% dextrose (glucose), 20 g; Sigma-Y1375. All bacteria and yeast suspensions were freshly made. The cultures were incubated at 37 °C for 16 h. Afterwards, the bacteria concentration from each culture was determined, and 34 ml of nutrient agar was loaded with 10^7 cells. These cultures were stored at 6-8 °C and could be used for seven days for the preparation of test plates. 34 ml of nutrient agar was liquefied and inoculated with the calculated amount of inoculum bacteria suspension at 48–50 °C, a temperature suitable for vegetative forms of bacteria. The inoculated nutrient media (34 ml each) were immediately poured into the prepared test plates (3 mm layer). With a punching device, 12 holes per test plate were punched out. For inhibiting bacterial growth, ciprofloxacin was used as a reference substance. The test substances were dissolved in distilled water, and 5 μg ml^−1 and 50 μl was added to each bacterial culture. For inhibition of fungal growth, amphotericin B served as the reference substance. The test substances were diluted to 10 μg ml^−1 in DMSO/methanol; 50 μl was added to each culture.
# (§3) Configuring the test plate; volumes/punched hole: 50 μl; test solutions/test plate: 1 × 50 μl reference substance. Test plates were cultivated for 18 h at 37 °C. Analysis: Reading the inhibition zones (IZ): As IZ, the zone in which no growth can be determined with the naked eye is measured; the tiniest colonies on the edge of the inhibition zone were therefore not taken into consideration. The diameter (φ) of the IZ is measured in mm. The analysis of IZ φ is carried out internationally with the help of statistic procedures, especially regression analysis. With each test approach, the reference substance was brought along as a control; if there were deviations from allowed IZ φ, the test was repeated.
# (§4) The inhibition of bacterial growth was determined using bacterial cultures grown in Müller-Hinton Bouillon, which was configured at barely visible opacity with the McFarland Standard Nr. 0.5, which indicates a bacterial density of 10^8 ml^−1. This bacterial suspension was diluted with Müller-Hinton Bouillon using 2-fold dilution series in the agar diffusion test.
# (§5) Analysis: The growth in the inhibition zones around the holes containing active substances is thereby compared with the growth in the growth control (no active substance). Bacterial growth was determined according to four measurements: p=presence of colonies in the inhibition zone, P=presence of many colonies in the inhibition zone, A=indication of inhibition, F=facilitation.
# [2] = tested on: Penicillium notatum JMRC:STI:50164; test: agar diffusion inhibition zone test; format: cell-based; settings: 1o, 2o 1,000 µg/ml in DMSO; amphotericin B 10 µg/ml; solvent DMSO 13p
# Description: as §1, §2, §3, §4, §5
# [3] = tested on: Sporobolomyces salmonicolor JMRC:ST:35974; test: agar diffusion inhibition zone test; format: cell-based; settings: 1o, 2o 1,000 µg/ml in DMSO; amphotericin B 10 µg/ml; solvent DMSO 20p
# Description: as §1, §2, §3, §4, §5
# [4] = tested on: Alternaria alternata JMRC:SF:09317; test: spore inhibition test; format: cell-based; settings: 48 h; start concentration 1 mg/ml (1o, 2o), 100 µg/ml (Amphotericin B)
# Description: (§6) The following test organisms were used for their susceptibility to compounds 1o and 2o: Alternaria alternata JMRC:SF:09317, Arthroderma benhamiae JMRC:ST:35888, Aspergillus fumigatus JMRC:Afum:00073=ATCC 46645, Aspergillus terreus JMRC:SF:06307, Candida albicans JMRC:ST:35864, Lichtheimia corymbifera JMRC:SF:09682, Penicillium chrysogenum JMRC:SF:10137, Rhizopus arrhizus (syn. R. oryzae) JMRC:SF:05857=ATCC 56536, CBS 112.07.
# (§7) Fungi were grown on 3% malt extract solidified medium for 1 to 2 weeks at room temperature. Then the plates were washed with 7 ml sterile distilled water, and the spore suspension was filtered through 4 layers of sterile Miracloth (Kalbiochem, USA) to remove the hyphae. The concentration of the spore suspension was set to 2 × 10^4 conidia ml^−1 for the in vitro assays.
# (§8) The spore inhibition assay took place in 96-well microplates (flat base). 50 μl of the prepared spore suspension was seeded and then mixed with 50 μl of the respective inhibitor substance. Tests were started with end concentrations of 1 mg ml^−1 and were then reduced in a minimum of 10 halving steps. Thus a 2 mg ml^−1 stock solution diluted in half ten times with solvent (distilled water, 2% DMSO in distilled water, or 2% DMF in distilled water) and each 50 μl was transferred to 50 μl spore suspension. For each test substance, 12 holes on the microtiter plate were filled. After 24 h incubation (25 °C), the germination of the spores was macroscopically and microscopically examined directly in the microtiter plate via measurement of the optical density and light microscopy using an inverse stereomicroscope with subsequent photodocumentation, respectively. If necessary, the plates were further incubated for another 24 or 48 h, depending on the extent of fungal germination.
# [5] = tested on: Arthroderma benhamiae JMRC:ST:35888; test: spore inhibition test; format: cell-based; settings: 72 h; start concentration 1 mg/ml (1o, 2o), 100 µg/ml (Amphotericin B)
# Description: as §6, §7, §8
# [6] = tested on: Aspergillus fumigatus JMRC:Afum:00073; test: spore inhibition test; format: cell-based; settings: 48 h; start concentration 1 mg/ml (1o, 2o), 100 µg/ml (Amphotericin B)
# Description: as §6, §7, §8
# [7] = tested on: Aspergillus terreus JMRC:SF:06307; test: spore inhibition test; format: cell-based; settings: 48 h; start concentration 1 mg/ml (1o, 2o), 100 µg/ml (Amphotericin B)
# Description: as §6, §7, §8
# [8] = tested on: Candida albicans JMRC:ST:35864; test: spore inhibition test; format: cell-based; settings: 48 h; start concentration 1 mg/ml (1o, 2o), 100 µg/ml (Amphotericin B)
# Description: as §6, §7, §8
# [9] = tested on: Lichtheimia corymbifera JMRC:SF:09682; test: spore inhibition test; format: cell-based; settings: 48 h; start concentration 1 mg/ml (1o, 2o), 100 µg/ml (Amphotericin B)
# Description: as §6, §7, §8
# [10] = tested on: Penicillium chrysogenum JMRC:SF:10137; test: spore inhibition test; format: cell-based; settings: 48 h; start concentration 1 mg/ml (1o, 2o), 100 µg/ml (Amphotericin B)
# Description: as §6, §7, §8
# [11] = tested on: Rhizopus arrhizus (syn. R. oryzae) JMRC:SF:05857; test: spore inhibition test; format: cell-based; settings: 48 h; start concentration 1 mg/ml (1o, 2o), 100 µg/ml (Amphotericin B)
# Description: as §6, §7, §8
# [12] = tested on: parasitaemia; design: method as in Baragana et al Nature, 2015,522,315; settings: at 0.57 mg/kg; ref Baragana et al Nature, 2015,522,315; cited from earlier work
# [13] = tested on: hepatic cell line (HepG2); test: cytotoxicity on hepatic cell line (literature); format: cell-based
# [14] = tested on: adult Schistosoma mansoni; settings: no longer toxic at 1 μM; cited from earlier work
# [15] = tested on: hepatic cell line (HepG2); settings: cited from earlier work
compound,measurement,setting,value
"C[C@@H]1[C@H](O)[C@@H](C)/C=C/C=C/C=C/C=C/C=C/C=C/C=C/[C@H](O[C@@H]2O[C@H](C)[C@@H](O)[C@H](N)[C@@H]2O)C[C@@H]2O[C@](O)(C[C@@H](O)C[C@@H](O)[C@H](O)CC[C@@H](O)C[C@@H](O)CC(=O)O[C@H]1C)C[C@H](O)[C@H]2C(=O)O [Amphotericin B, amphotericin B, reference compound]",zone of inhibition at 10 µg/mL,[1],21 mm
same,"inhibition zone diameter, Penicillium notatum (P1)",[2],19p
same,"inhibition zone diameter, Sporobolo. salmonicolor (H4)",[3],18p
same,"antifungal profile, 1st value = microscopic visualization-based observation, Alternaria alternata",[4],0.78
same,"antifungal profile, 2nd value = optical density-based observation, Alternaria alternata",[4],0.1
same,"antifungal profile, 1st value = microscopic visualization-based observation, Arthroderma benhamiae",[5],3.12
same,"antifungal profile, 2nd value = optical density-based observation, Arthroderma benhamiae",[5],0.2
same,"antifungal profile, 1st value = microscopic visualization-based observation, Aspergillus fumigatus",[6],3.12
same,"antifungal profile, 2nd value = optical density-based observation, Aspergillus fumigatus",[6],0.4
same,"antifungal profile, 1st value = microscopic visualization-based observation, Aspergillus terreus",[7],50
same,"antifungal profile, 2nd value = optical density-based observation, Aspergillus terreus",[7],0.2
same,"antifungal profile, 1st value = microscopic visualization-based observation, Candida albicans",[8],0.4
same,"antifungal profile, 2nd value = optical density-based observation, Candida albicans",[8],0.2
same,"antifungal profile, 1st value = microscopic visualization-based observation, Lichtheimia corymbifera",[9],< 0.05
same,"antifungal profile, 2nd value = optical density-based observation, Lichtheimia corymbifera",[9],< 0.05
same,"antifungal profile, 1st value = microscopic visualization-based observation, Penicillium chrysogenum",[10],100
same,"antifungal profile, 2nd value = optical density-based observation, Penicillium chrysogenum",[10],1.56
same,"antifungal profile, 1st value = microscopic visualization-based observation, Rhizopus arrhizus",[11],25
same,"antifungal profile, 2nd value = optical density-based observation, Rhizopus arrhizus",[11],1.56
O=C(NCCN1CCCC1)c1cc(-c2ccc(CN3CCOCC3)cc2)nc2ccc(F)cc12 [DDD107498],reduction in parasitaemia,[12],90%
O=C(C1CCCCC1)N1CC(=O)N2CCc3ccccc3C2C1 (stereo not drawn) [praziquantel],selectivity index,[13]; HepG2 IC50 with respect to adult worms treated in vitro with 5 µM,33
same,selectivity index,[13]; HepG2 IC50 with respect to adult worms treated in vitro with 10 µM,16.5
same,concentration toxic for schistosomes in vitro,[14],5 to 10 µM
same,IC50,[15],165 µM
